From patent publication EP4039094A1, “NOVEL ANTIFUNGAL COMPOUNDS” (Max-Planck-Gesellschaft zur Förderung der Wissenschaften …, priority 2021, dated 2022)
Entries after “also recorded” stand apart in the source; their conditions may differ.

What was measured:
[1] = system: U. maydis strains FB1 and FB2; test: Maize seedling infection model, compound added to inoculum, symptom scoring 12 dpi; format: in vivo, Ustilago maydis; parameters: key to Severity of disease symptoms First infection / Severity of disease symptoms Second infection: Full virulence is symbolized by (XXXXX); XXX - slightly reduced virulence; XX - reduced virulence; x - strongly reduced virulence; conditions: for inhibitory effect on virulence of U. maydis: 1 mM, 0.5 mM and 0.1 mM final concentration in the inoculum (Figure 2C); for virulence of U. maydis: 5 mM final concentration in the inoculum of FB1xFB2, first test of ten hits; for Retesting for an inhibition of virulence: U. maydis, retest of four compounds; for Severity of disease symptoms First infection: 4-7 plants per assay
Experimental: Compounds to be tested were added to the inoculum. Briefly, 6 day old maize seedlings were syringe-infected with about 0.5 ml of fungal suspension in H2O which was amended with the hit compound. The infection and symptoms assessment were done as described in Kämper et al., (Insights from the genome of the biotrophic fungal plant pathogen Ustilago maydis. Nature 2006, 444, 97-101). During the syringe-infection into the stem, the fungal-compound mix is dispersed between the rolled-up leaves and fills the leaf whorl. The compounds were applied only at the stage of mixing with the inoculum, which is subsequently diluted with existing apoplastic fluid, during the infection. In addition, compounds have to reach the Stp complex in biotrophic hyphae from the initial inoculum. […] Since compounds are dissolved in DMSO, the tolerance of U. maydis towards DMSO was tested by adding DMSO to the inoculum at concentrations between 10 and 50% final concentration.
Symptom scoring was done 12 days post infection (dpi) in case of U. maydis seedling infections. Symptom scoring occurred according to the categories described in Table 2. Table 2: Categories of virulence symptoms of U. maydis maize seedling infection (according to Kämper et al., 2006).

U. fabae = test: Uromyces fabae - Vicia faba leaf infection, pustule formation versus DMSO leaflet; format: in vivo
Experimental: The Uromyces fabae - Vicia faba system was established by initially obtaining spores as well as broad bean seeds from the Institut für Phytomedizin at Hohenheim University, Germany. Briefly, Vicia faba plants (Bingenheimer Saatgut Frühe Weißkeimige, G142) were propagated in soil up to about the 4 leaf stage (2-3 plants per pot). Plants were transferred to a chamber lined with wet paper. 100 mg U. fabae spores were mixed with 160 mg skimmed milk powder in 200 ml sterile H2O. Tween 20 was added to a final concentration of 0.01 % and the mixture was stirred in the dark for 45 min. Leaves were sprayed with the suspension on both the upper and lower side and afterwards the entire compartment was fogged with H2O before closure and kept in the dark for 20 h. Plants were then gradually allowed to dry and were placed in a growth chamber under a light regime of 16 h light (24°C) and 8 h (20°C) dark until symptoms developed (10-12 days). Plants were tossed and spores were collected on underlying aluminum foil, and aliquots were frozen at -80°C.
For the infection with compounds added, 10 mg of U. fabae spores were mixed with 16 mg skimmed milk powder in 20 ml sterile H2O. Tween 20 was added to a final concentration of 0.01 % and the mixture was stirred in the dark for 45 min. Compounds were diluted to the desired concentration into in the spore suspension. The controls received the same amount of DMSO. Per bean plant, one pinnate leaf with two leaflets was selected and one of the leaflets was infected with spores + compound and the other with spores + DMSO, respectively. To this end leaves were lightly sprayed with H2O and the 100µl spore solution containing the compound or DMSO respectively was applied on the upper part of the using a small painting brush. Afterwards the plants were placed in a chamber lined with wet paper, fogged with H2O before closure and kept in the dark for 20 h. Plants were then gradually allowed to dry and were placed in a growth chamber under a light regime of 16 h light (24°C) and 8 h (20°C) dark until symptoms developed. The symptoms were quantified by using a previously described method (Sillero and Rubiales, 2002) with minor modifications. Comparisons of pustule formation were done as follow: leaf treated with spores plus DMSO (control) versus leaf treated with spores plus compound in DMSO (test). A single bifurcated leaf was used for this assay, and one half received the control and the other half receive spores with compound. Then it was determined whether pustule formation occurs or is inhibited. Leaves were scored for the development of brownish-red pustules. Only when brownish-red pustules containing powdery spores (urediniospores) appeared on the control leaf an infection was counted as valid. All compounds were tested in three biological replicates. Pictures were taken at 12-14 days post infection.

[2] = 1 mM final concentration in the inoculum of Zea Mays (Figure 2A, B)
[3] = 0.5 mM final concentration in the inoculum
[4] = 1 mM final concentration in the inoculum of Vicia faba
[5] = 5 mM hit compound added to inoculum of FB1xFB2, Zea mays

SMILES | Virulence inhibition of U. maydis [1, 2] | inhibitory effect on virulence of U. maydis [1] | virulence of U. maydis [1] | Retesting for an inhibition of virulence [1] | virulence inhibition of U. fabae (pustule formation) (U. fabae; [3]) | virulence inhibition of U. fabae (pustule formation) (U. fabae; [4]) | Virulence inhibition of U. maydis ([1]; 0.5 mM final concentration, dilution series (Figure 7)) | Virulence inhibition of U. maydis ([1]; 1 mM final concentration, dilution series (Figure 7)) | Virulence inhibition of U. maydis ([1]; 5 mM final concentration, dilution series (Figure 7)) | Severity of disease symptoms First infection [1, 5] | Severity of disease symptoms Second infection ([1]; 5 mM hit compound added to inoculum of FB1xFB2, Zea mays, retest) | Virulence inhibition of U. maydis ([1]; dilution series between 5 mM and 0.01 mM final concentration (Figure 5)) | virulence inhibition of U. fabae (pustule formation) (U. fabae; 0.1 mM final concentration) | inhibitory activity on U. fabae virulence (U. fabae; Figure 6, concentration not given)
Cc1ccc(-c2c(-c3ccc(C)cc3)[n+]([O-])c3ccccn23)cc1 [Compound 1-A] | able to reduce virulence | concentration dependent inhibitory effect | significant reductions in virulence | confirmed the results | developed symptoms | able to inhibit pustule formation | – | – | – | – | – | – | – | –
CC(C)n1ncc2cc(NS(=O)(=O)c3cc(F)ccc3F)cnc21 [Compound 1-B] | – | – | significant reductions in virulence | confirmed the results | – | completely inhibited | negligible | very strong; also recorded: very strongly | very strong; also recorded: very strongly | XX | – | – | – | –
Cc1ccc(CSc2nc(=O)n(C3CCCC3)c3c2CCC3)cc1 [Compound 1-C] | – | – | significant reductions in virulence | confirmed the results | inhibited pustule formation | inhibited pustule formation | – | – | – | XXX | XXX | concentration dependent; also recorded: strong inhibitory activity | inhibited pustule formation | strong inhibitory activity
[O-][n+]1c(-c2ccc(C(F)(F)F)cc2)c(-c2ccc(C(F)(F)F)cc2)n2ccccc21 [Compound 2-A] | able to reduce virulence | concentration dependent inhibitory effect | – | – | fully inhibit pustule formation | able to inhibit pustule formation | – | – | – | – | – | – | – | –
O=[N+]([O-])c1ccc(-c2c(-c3ccccc3)n3ccccc3[n+]2[O-])cc1 [Compound 3-A] | only mildly | – | – | – | developed symptoms | able to inhibit pustule formation | – | – | – | – | – | – | – | –
